Test system: PANC-1 cells
Experiment: Proliferation assay of SHANK3 silenced PANC-1 cells treated with ERK and MEK inhibitors
Assay type: cell-based, human
Settings: dose-dependent, 7.8 nM-8 μM gradient
Protocol: Proliferation Assay of SHANK3 Silenced PANC-1 Cells Treated with ERK and MEK Inhibitors
Cells were seeded on a 96-well plate (2000-5000 cells/well) a day before transfection and silenced the next day when cell confluence was approximately 30%. Next day after silencing, medium was changed to full medium containing DMSO (control), Trametinib, Selumetinib (ADZ6244) or selective ERK1/2 inhibitor (SCH772984) in dose-dependent manner (concentration gradient: 0, 7.8 nM, 15.5 nM 31.3 nM 62.5 nM, 125 nM, 250 nM, 500 nM, 1 μM, 2 μM, 4 μM and 8 μM). Proliferation was measured using IncuCyte S3 as described above.

O=C(Nc1ccc2[nH]nc(-c3ccncc3)c2c1)[C@@H]1CCN(CC(=O)N2CCN(c3ccc(-c4ncccn4)cc3)CC2)C1 [SCH772984]
rescue of cell viability lost by SHANK3-silencing: abolished a loss of cell viability induced by SHANK3-silencing

— US20230073368A1, “THERAPY OF RAS-DEPENDENT CANCERS” (Turun Yliopisto, priority 2020, published 2023)
